Assay results reported in US20210059959A1, “USE OF CANNABINOIDS IN THE TREATMENT OF MENTAL DISORDERS” (GW Pharma Limited, priority 2015, published 2021).

Test system: participants with schizophrenia or related psychotic disorder
Assay: Scale for the Assessment of Negative Symptoms (SANS), double-blind placebo-controlled study of CBD as adjunctive therapy
Assay type: in vivo, human
Settings: CBD vs placebo
Description: Example 1 below describes the use of a highly purified cannabis extract comprising cannabidiol (CBD) in a human clinical trial. Example 1 describes data produced in a double-blind, randomised, placebo-controlled, parallel group study of highly purified CBD as adjunctive therapy in first line treatment of schizophrenia or related psychotic disorder.
An eight-week, multi-centre, double-blind, randomised, placebo-controlled, parallel group study was conducted with the aim to determine the efficacy, safety and tolerability of highly purified CBD as adjunctive therapy in first line treatment of schizophrenia or related psychotic disorder.
This study evaluated the efficacy of highly purified CBD compared with placebo on the participant's PANSS Total score, ‘P’, ‘N’, ‘G’, SANS and BACS scores.
Changes from baseline in PANSS scores (Total, ‘P’, ‘N’ and ‘G’), SANS and BACS were recorded at the start of the study (baseline) and at the end of treatment (after 6 weeks treatment with CBD or placebo).
For inclusion in the study participants were required to be male or female aged 18 to 65 years, diagnosed with schizophrenia or a related psychotic disorder (such as schizoaffective or schizophreniform disorder) as defined by the Diagnostic and Statistical Manual of Mental Disorders Version 4. Participants must have been treated for a minimum of four-weeks and be on a stable dose of their current antipsychotic medication. […] A PANSS score in excess of 60 infers that the patient has symptoms related to schizophrenia or related disorders.
The participants were randomised to one of two treatment groups which each consisted of 39 participants. Treatment was administered as either 5 ml CBD (100 mg/ml) oral solution to be taken twice daily or 5 ml matched placebo oral solution to be taken twice daily.
Scale for the Assessment of Negative Symptoms (SANS)
SANS assesses five symptom complexes to obtain clinical ratings of negative symptoms in participants with schizophrenia or related psychotic disorder. They are: affective blunting; alogia (impoverished thinking); avolition/apathy; anhedonia/asociality; and disturbance of attention.
Assessments are conducted on a six-point scale (0=not at all to 5=severe). This scale was measured at each assessment visit (Visit 1-4)

[1] = patients on amisulpride, P = 0.8772

`C=C(C)[C@@H]1CCC(C)=C[C@H]1c1c(O)cc(CCCCC)cc1O` [CBD, Cannabidiol] was tested, and the “Change in baseline scores, SANS question 19: Sexual interest and activity: difference” value (all patients, P = 0.0364) was “(−0.4)”, the “Change in baseline scores, SANS sub-scale 4 (anhedonia/asociality): difference” value (“Change … (anhedonia/asociality): difference” below) (all patients, P = 0.0605) was “(−1.2)” and the “Change in baseline scores, SANS question 24: Inattentiveness during mental status testing: difference” value (all patients, P = 0.0610) was “(−0.3)”. The “Change in baseline scores, SANS sub-scale 5 (disturbance of attention): difference” value (“Change … (disturbance of attention): difference” for short) (all patients, P = 0.0660) was “(−0.7)”, the “Change in baseline scores, SANS question 25: Global rating of attention: difference” value (from here on “Change … of attention: difference”) (all patients, P = 0.0773) was “(−0.2)” and the “Change in baseline scores, SANS question 20: Ability to feel closeness and intimacy: difference” value (all patients, P = 0.0918) was “(−1.1)”. For the same molecule, the “Change in baseline scores, SANS total score: difference” value (all patients, P = 0.1168) was “(−3.5)”, the “Change in baseline scores, SANS question 18: Recreational interests and activity: difference” value (all patients, P = 0.1535) was “(−0.3)” and the “Change in baseline scores, SANS question 22: Global rating of anhedonia: difference” value (from here on “Change … of anhedonia: difference”) (all patients, P = 0.1787) was “(−0.2)”. For the same molecule, the “Change in baseline scores, SANS question 23: Social inattentiveness: difference” value (from here on “Change … Social inattentiveness: difference”) (all patients, P = 0.2445) was “(−0.2)”, the “Change in baseline scores, SANS question 21: Relationships with friends and peers: difference” value (“Change … with friends and peers: difference” below) (all patients, P = 0.8984) was “(0.0)” and the “Change in baseline scores, SANS score: difference” value (shortened to “Change … SANS score: difference”) (patients on amisulpride, P = 0.0687) was “(16.6)”. The “Change … of attention: difference” value (patients on amisulpride, P = 0.0756) was “(1.0)”, the “Change in baseline scores, SANS question 19: Sexual interest and activity: difference” value (patients on amisulpride, P = 0.1971) was “(−0.8)” and the “Change in baseline scores, SANS question 18: Recreational interests and activity: difference” value (patients on amisulpride, P = 0.3833) was “(1.0)”. The “Change … (disturbance of attention): difference” value (patients on amisulpride, P = 0.4023) was “(1.3)”, the “Change … Social inattentiveness: difference” value (patients on amisulpride, P = 0.4206) was “(0.5)” and the “Change … (anhedonia/asociality): difference” value (patients on amisulpride, P = 0.4357) was “(1.4)”. The “Change … with friends and peers: difference” value (patients on amisulpride, P = 0.5671) was “(0.5)”, the “Change in baseline scores, SANS question 24: Inattentiveness during mental status testing: difference” value (patients on amisulpride, P = 0.8060) was “(−0.2)” and the “Change in baseline scores, SANS question 15: Impersistence at work or school: difference” value (“Change … at work or school: difference” below) (patients on amisulpride, P = 0.8729) was “(0.0)”. The “Change in baseline scores, SANS question 20: Ability to feel closeness and intimacy: difference” value [1] was “(0.1)”, the “Change … of anhedonia: difference” value [1] was “(0.1)” and the “Change … of attention: difference” value (patients on aripiprazole, P = 0.0412) was “(−0.4)”. The “Change … (disturbance of attention): difference” value (patients on aripiprazole, P = 0.1133) was “(−1.0)”, the “Change in baseline scores, SANS question 24: Inattentiveness during mental status testing: difference” value (patients on aripiprazole, P = 0.1740) was “(−0.4)” and the “Change … at work or school: difference” value (patients on aripiprazole, P = 0.1966) was “(−0.5)”. The “Change in baseline scores, SANS question 18: Recreational interests and activity: difference” value (patients on aripiprazole, P = 0.2979) was “(−0.3)”, the “Change … Social inattentiveness: difference” value (patients on aripiprazole, P = 0.3546) was “(−0.2)” and the “Change in baseline scores, SANS question 19: Sexual interest and activity: difference” value (patients on aripiprazole, P = 0.4231) was “(−0.3)”. The “Change … (anhedonia/asociality): difference” value (patients on aripiprazole, P = 0.7086) was “(−0.5)”, the “Change … SANS score: difference” value (patients on aripiprazole, P = 0.7642) was “(−1.4)” and the “Change … with friends and peers: difference” value (patients on aripiprazole, P = 0.8346) was “(−0.1)”. For the same molecule, the “Change in baseline scores, SANS question 20: Ability to feel closeness and intimacy: difference” value (patients on aripiprazole, P = 0.8965) was “(0.0)”, the “Change … of anhedonia: difference” value (patients on aripiprazole, P = 0.9259) was “(0.0)” and the “Change … SANS score: difference” value (patients on olanzapine, P = 0.0050) was “(−14.3)”. The “Change in baseline scores, SANS question 20: Ability to feel closeness and intimacy: difference” value (patients on olanzapine, P = 0.0069) was “(−0.9)”, the “Change … (anhedonia/asociality): difference” value (patients on olanzapine, P = 0.0071) was “(−3.7)” and the “Change … at work or school: difference” value (patients on olanzapine, P = 0.0242) was “(−0.9)”. The “Change … of anhedonia: difference” value (patients on olanzapine, P = 0.0475) was “(−0.6)”, the “Change in baseline scores, SANS question 18: Recreational interests and activity: difference” value (patients on olanzapine, P = 0.0689) was “(−0.8)” and the “Change in baseline scores, SANS question 19: Sexual interest and activity: difference” value (patients on olanzapine, P = 0.0794) was “(−0.9)”. The “Change … of attention: difference” value (patients on olanzapine, P = 0.1064) was “(−0.6)”, the “Change … (disturbance of attention): difference” value (patients on olanzapine, P = 0.3556) was “(−1.0)” and the “Change … with friends and peers: difference” value (patients on olanzapine, P = 0.4829) was “(−0.2)”. For the same molecule, the “Change in baseline scores, SANS question 24: Inattentiveness during mental status testing: difference” value (patients on olanzapine, P = 0.5922) was “(−0.2)”, the “Change … Social inattentiveness: difference” value (patients on olanzapine, P = 0.6757) was “(−0.2)” and the “Change in baseline scores, SANS question 24: Inattentiveness during mental status testing: difference” value (patients on other antipsychotics, P = 0.0654) was “(−1.6)”. The “Change … of attention: difference” value (patients on other antipsychotics, P = 0.1763) was “(0.8)”, the “Change in baseline scores, SANS question 20: Ability to feel closeness and intimacy: difference” value (patients on other antipsychotics, P = 0.2601) was “(−0.4)” and the “Change … at work or school: difference” value (patients on other antipsychotics, P = 0.2746) was “(−10.6)”. The “Change … SANS score: difference” value (patients on other antipsychotics, P = 0.3359) was “(−8.3)”, the “Change … (disturbance of attention): difference” value (patients on other antipsychotics, P = 0.4192) was “(−1.5)” and the “Change … Social inattentiveness: difference” value (patients on other antipsychotics, P = 0.4246) was “(−0.5)”. For the same molecule, the “Change … (anhedonia/asociality): difference” value (patients on other antipsychotics, P = 0.5465) was “(−0.8)”, the “Change … with friends and peers: difference” value (patients on other antipsychotics, P = 0.6373) was “(−0.2)” and the “Change … of anhedonia: difference” value (patients on other antipsychotics, P = 0.6969) was “(−0.2)”. The “Change in baseline scores, SANS question 18: Recreational interests and activity: difference” value (patients on other antipsychotics, P = 0.8182) was “(−0.1)”, the “Change in baseline scores, SANS question 19: Sexual interest and activity: difference” value (patients on other antipsychotics, P = 0.9656) was “(0.0)” and the “Change … (anhedonia/asociality): difference” value (patients on quetiapine, P = 0.0017) was “(−4.8)”. The “Change … with friends and peers: difference” value (patients on quetiapine, P = 0.0044) was “(−0.7)”, the “Change in baseline scores, SANS question 18: Recreational interests and activity: difference” value (patients on quetiapine, P = 0.0233) was “(−1.3)” and the “Change in baseline scores, SANS question 19: Sexual interest and activity: difference” value (patients on quetiapine, P = 0.0501) was “(−1.4)”. The “Change … Social inattentiveness: difference” value (patients on quetiapine, P = 0.0862) was “(−0.5)”, the “Change … of anhedonia: difference” value (patients on quetiapine, P = 0.1043) was “(−1.1)” and the “Change in baseline scores, SANS question 20: Ability to feel closeness and intimacy: difference” value (patients on quetiapine, P = 0.1330) was “(−0.4)”. The “Change … of attention: difference” value (patients on quetiapine, P = 0.2697) was “(−0.4)”, the “Change … (disturbance of attention): difference” value (patients on quetiapine, P = 0.2701) was “(−1.1)” and the “Change … SANS score: difference” value (patients on quetiapine, P = 0.3150) was “(−5.4)”. For the same molecule, the “Change in baseline scores, SANS question 24: Inattentiveness during mental status testing: difference” value (patients on quetiapine, P = 0.4421) was “(−0.6)”, the “Change … at work or school: difference” value (patients on quetiapine, P = 0.6640) was “(5.1)” and the “Change … with friends and peers: difference” value (patients on risperidone, P = 0.0791) was “(0.5)”. For the same molecule, the “Change … (anhedonia/asociality): difference” value (patients on risperidone, P = 0.2800) was “(1.2)”, the “Change … SANS score: difference” value (patients on risperidone, P = 0.2955) was “(3.1)” and the “Change … (disturbance of attention): difference” value (patients on risperidone, P = 0.3302) was “(0.7)”. The “Change … of attention: difference” value (patients on risperidone, P = 0.3389) was “(0.2)”, the “Change in baseline scores, SANS question 24: Inattentiveness during mental status testing: difference” value (patients on risperidone, P = 0.4231) was “(0.3)” and the “Change in baseline scores, SANS question 18: Recreational interests and activity: difference” value (patients on risperidone, P = 0.4560) was “(−0.3)”. For the same molecule, the “Change … Social inattentiveness: difference” value (patients on risperidone, P = 0.5207) was “(0.2)”, the “Change … at work or school: difference” value (patients on risperidone, P = 0.6285) was “(0.1)” and the “Change in baseline scores, SANS question 19: Sexual interest and activity: difference” value (patients on risperidone, P = 0.6889) was “(0.1)”. The “Change in baseline scores, SANS question 20: Ability to feel closeness and intimacy: difference” value (patients on risperidone, P = 0.8648) was “(0.0)” and the “Change … of anhedonia: difference” value (patients on risperidone, P = 0.9940) was “(0.0)”.
